The molecules below were run against T1, Axl (Homo sapiens, UniProt P30530) (assay: Phospho-Akt In-Cell Western Assay (inhibition of Axl activity after Axl-antibody cross-linking)). Settings: Hela cells, phospho-Akt chemiluminescence normalized to relative cell number; compounds of formula (Ib), Table 2; read-out: IC50.
T1 construct: endogenous in cells; host or cells: HeLa cells
T1 sequence (P30530 26-894): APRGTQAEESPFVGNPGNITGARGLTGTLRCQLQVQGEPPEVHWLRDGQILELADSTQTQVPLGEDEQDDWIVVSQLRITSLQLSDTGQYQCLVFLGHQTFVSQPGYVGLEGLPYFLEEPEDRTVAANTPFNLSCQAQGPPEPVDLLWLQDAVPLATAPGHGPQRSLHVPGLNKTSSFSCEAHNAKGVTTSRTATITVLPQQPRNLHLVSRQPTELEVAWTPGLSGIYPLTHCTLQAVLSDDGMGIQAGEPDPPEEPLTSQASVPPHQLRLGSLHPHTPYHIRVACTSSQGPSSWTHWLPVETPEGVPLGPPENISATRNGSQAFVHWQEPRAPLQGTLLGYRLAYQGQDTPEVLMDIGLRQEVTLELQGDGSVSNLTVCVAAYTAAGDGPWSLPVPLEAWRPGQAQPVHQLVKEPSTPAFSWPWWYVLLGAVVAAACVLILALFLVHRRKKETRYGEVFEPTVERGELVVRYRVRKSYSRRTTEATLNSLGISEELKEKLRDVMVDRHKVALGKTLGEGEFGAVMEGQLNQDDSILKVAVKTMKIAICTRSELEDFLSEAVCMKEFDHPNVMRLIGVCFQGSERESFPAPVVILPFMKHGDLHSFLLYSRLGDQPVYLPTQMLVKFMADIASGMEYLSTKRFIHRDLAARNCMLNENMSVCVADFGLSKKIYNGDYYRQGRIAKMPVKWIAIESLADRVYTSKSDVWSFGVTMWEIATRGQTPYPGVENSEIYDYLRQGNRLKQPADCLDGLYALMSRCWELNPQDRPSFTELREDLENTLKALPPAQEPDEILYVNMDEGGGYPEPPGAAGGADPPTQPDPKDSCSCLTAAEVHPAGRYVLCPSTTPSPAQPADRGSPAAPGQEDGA
Assay type: cell-based
Procedure, shortened: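 Phospho-Akt was detected in formaldehyde-fixed cells by in-cell immunostaining with HRP chemiluminescence. Before fixation, HeLa cells kept 24 h in low-serum medium containing 500 ng/mL Axl/Fc received compound for 1 h at 37 °C, followed by 5-min Axl activation through antibody clustering.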
Molecule `Nc1nc(Nc2ccc(N3CCC(N4CCCC4)CC3)cc2)n(-c2cc3c(nn2)-c2ccccc2SCC3)n1` [Compound 172, 1-(6,7-dihydro-5H-benzo[2,3]thiepino[4,5-c]pyridazin-3-yl)-N^5-(4-(4-pyrrolidin-1-ylpiperidinyl)phenyl)-1H-1,2,4-triazole-3,5-diamine] has an IC50 of over 20 µM. Molecule `Cc1cc(Nc2nc(N)nn2-c2cc3c(nn2)-c2ccccc2CCC3)cnc1N1CCC(N2CCCC2)CC1` [Compound 173, 1-(6,7-dihydro-5H-benzo[6,7]cyclohepta[1,2-c]pyridazin-3-yl)-N^5-(6-(4-(pyrrolidin-1-yl)piperidin-1-yl)-5-methylpyridin-3-yl)-1H-1,2,4-triazole-3,5-diamine] has an IC50 of 1 to 10 µM. For `Nc1nc(Nc2ccc(N3CCC(N4CCCC4)C3)c(F)c2)n(-c2cc3c(nn2)-c2ccccc2CCC3)n1` (stereo not shown) [Compound 174, 1-(6,7-dihydro-5H-benzo[6,7]cyclohepta[1,2-c]pyridazin-3-yl)-N^5-(3-fluoro-(4-(3-pyrrolidin-1-yl)pyrrolidin-1-yl)phenyl)-1H-1,2,4-triazole-3,5-diamine], the IC50 was 1 to 10 µM.

Same assay, conditions: inhibition of Axl activity; Table 1, compounds of formula (Ia); read-out: IC50
`CN1CCN(C2CCN(c3ccc(Nc4nc(N)n(-c5cc6c(nn5)-c5ccccc5OC65CCCC5)n4)cc3F)CC2)CC1` [Compound 175, 1-(spiro[chromeno[4,3-c]pyridazine-5,1′-cyclopentane]-3-yl)-N^3-(3-fluoro-4-(4-(4-methylpiperazin-1-yl)piperidin-1-yl)phenyl)-1H-1,2,4-triazole-3,5-diamine] gave an IC50 of 10 to 20 µM. With `Nc1nc(Nc2ccc(N3CCC(N4CCCC4)CC3)c(F)c2)nn1-c1cc2c(nn1)-c1ccccc1OC21CCCC1` [Compound 176, 1-(spiro[chromeno[4,3-c]pyridazine-5,1′-cyclopentane]-3-yl)-N^3-(3-fluoro-4-(4-(pyrrolidin-1-yl)piperidin-1-yl)phenyl)-1H-1,2,4-triazole-3,5-diamine] the IC50 was 1 to 10 µM. `Nc1nc(Nc2ccc(N3CCC(N4CCCC4)CC3)c(F)c2)nn1-c1cc2c(nn1)-c1ccccc1CCC2` [Compound 177, 1-(6,7-dihydro-5H-benzo[6,7]cyclohepta[1,2-c]pyridazin-3-yl)-N^3-(3-fluoro-4-(4-pyrrolidin-1-ylpiperidin-1-yl)phenyl)-1H-1,2,4-triazole-3,5-diamine] was tested, and the IC50 was under 1 µM. `Nc1nc(Nc2ccc(N3CCC(N4CCCC4)CC3)c(F)c2)nn1-c1cc2c(nn1)CCCc1ccccc1-2` [Compound 178, 1-(6,7-dihydro-5H-benzo[6,7]cyclohepta[4,5-c]pyridazin-2-yl)-N^3-(3-fluoro-4-(4-pyrrolidin-1-ylpiperidin-1-yl)phenyl)-1H-1,2,4-triazole-3,5-diamine] showed an IC50 of under 1 µM. In the case of `CN1CCN(C2CCN(c3ccc(Nc4nc(N)n(-c5cc6c(nn5)-c5ccccc5CCC6)n4)cc3F)CC2)CC1` [Compound 179, 1-(6,7-dihydro-5H-benzo[6,7]cyclohepta[1,2-c]pyridazin-3-yl)-N^3-(3-fluoro-4-(4-(4-methylpiperazin-1-yl)piperidin-1-yl)phenyl)-1H-1,2,4-triazole-3,5-diamine], the IC50 is reported as under 1 µM. `CN(C)[C@@H]1CCN(c2ccc(Nc3nc(N)n(-c4cc5c(nn4)-c4ccccc4CCC5)n3)cc2F)C1` [Compound 180, 1-(6,7-dihydro-5H-benzo[6,7]cyclohepta[1,2-c]pyridazin-3-yl)-N^3-(3-fluoro-4-(3-(3R)-dimethylaminopyrrolidin-1-yl)phenyl)-1H-1,2,4-triazole-3,5-diamine] gave an IC50 of under 1 µM. For `CCN(CC)C1CCc2ccc(Nc3nc(N)n(-c4cc5c(nn4)-c4ccccc4CCC5)n3)cc2CC1` (stereo not shown) [Compound 185, 1-(6,7-dihydro-5H-benzo[6,7]cyclohepta[1,2-c]pyridazin-3-yl)-N^3-(7-diethylamino-6,7,8,9-tetrahydro-5H-benzo[7]annulene-2-yl)-1H-1,2,4-triazole-3,5-diamine], the IC50 was under 1 µM. In the case of `Nc1nc(Nc2ccc3c(c2)CCC(NC2CCCC2)CC3)nn1-c1cc2c(nn1)-c1ccccc1CCC2` (stereo not shown) [Compound 186, 1-(6,7-dihydro-5H-benzo[6,7]cyclohepta[1,2-c]pyridazin-3-yl)-N^3-(7-cyclopentylamino-6,7,8,9-tetrahydro-5H-benzo[7]annulene-2-yl)-1H-1,2,4-triazole-3,5-diamine], the IC50 is reported as under 1 µM. Work on `Nc1nc(Nc2ccc(N3CCN(CC4CC4)CC3)nc2)nn1-c1cc2c(nn1)-c1ccccc1CCC2` [Compound 187, 1-(6,7-dihydro-5H-benzo[6,7]cyclohepta[1,2-c]pyridazin-3-yl)-N^3-(2-(4-cyclopropylmethylpiperazin-1-yl)pyridine-5-yl)-1H-1,2,4-triazole-3,5-diamine] yielded an IC50 of 1 to 10 µM. `Nc1nc(Nc2cnc3c(c2)CC(N2CCCC2)CC3)nn1-c1cc2c(nn1)-c1ccccc1CCC2` (stereo not shown) [Compound 189, 1-(6,7-dihydro-5H-benzo[6,7]cyclohepta[1,2-c]pyridazin-3-yl)-N^3-(6-(pyrrolidin-1-yl)-5,6,7,8-tetrahydroquinolin-3-yl)-1H-1,2,4-triazole-3,5-diamine] gave an IC50 of under 1 µM. Molecule `Nc1nc(Nc2cnc3c(c2)CN(C2CCCC2)CC3)nn1-c1cc2c(nn1)-c1ccccc1CCC2` [Compound 190, 1-(6,7-dihydro-5H-benzo[6,7]cyclohepta[1,2-c]pyridazin-3-yl)-N^3-(6-cyclopentyl-5,6,7,8-tetrahydro-1,6-naphthyridine-3-yl)-1H-1,2,4-triazole-3,5-diamine] has an IC50 of under 1 µM. Work on `Nc1nc(Nc2cnc3c(c2)CC[C@H](N2CCCC2)CC3)nn1-c1cc2c(nn1)-c1ccccc1CCC2` [Compound 191, 1-(6,7-dihydro-5H-benzo[6,7]cyclohepta[1,2-c]pyridazin-3-yl)-N^3-((S)-7-(pyrrolidin-1-yl)-6,7,8,9-tetrahydro-5H-cyclohepta[b]pyridine-3-yl)-1H-1,2,4-triazole-3,5-diamine] yielded an IC50 of under 1 µM. Molecule `Nc1nc(Nc2ccc(N3CCN(C4CCCCC4)CC3)c(F)c2)nn1-c1cc(-c2ccccc2)c2c(n1)-c1ccccc1CCC2` [Compound 192, 1-(4-phenyl-6,7-dihydro-5H-benzo[6,7]cyclohepta[1,2-b]pyridin-2-yl)-N^3-(3-fluoro-4-(4-cyclohexylpiperazin-1-yl)phenyl)-1H-1,2,4-triazole-3,5-diamine] has an IC50 of 10 to 20 µM. `CN1CCN(c2ccc(Nc3nc(N)n(-c4cc(-c5ccccc5)c5c(n4)-c4ccccc4CCC5)n3)cc2)CC1` [Compound 193, 1-(4-phenyl-6,7-dihydro-5H-benzo[6,7]cyclohepta[1,2-b]pyridin-2-yl)-N^3-(4-(4-methylpiperazin-1-yl)phenyl)-1H-1,2,4-triazole-3,5-diamine] showed an IC50 of 1 to 10 µM. In the case of `COC(=O)[C@@H]1CCCN1C1CCc2ccc(Nc3nc(N)n(-c4cc5c(nn4)-c4ccccc4CCC5)n3)cc2CC1` (stereo partly drawn) [Compound 194, 1-(6,7-dihydro-5H-benzo[6,7]cyclohepta[1,2-c]pyridazin-3-yl)-N^3-((7-(2-(S)-methyloxycarbonyl)pyrrolidin-1-yl)-6,7,8,9-tetrahydro-5H-benzo[7]annulene-2-yl)-1H-1,2,4-triazole-3,5-diamine], the IC50 is reported as under 1 µM. `Nc1nc(Nc2ccc3c(c2)CCC(N2CCC[C@H]2C(=O)O)CC3)nn1-c1cc2c(nn1)-c1ccccc1CCC2` (stereo partly drawn) [Compound 195, 1-(6,7-dihydro-5H-benzo[6,7]cyclohepta[1,2-c]pyridazin-3-yl)-N^3-((7-(2-(S)-carboxy)pyrrolidin-1-yl)-6,7,8,9-tetrahydro-5H-benzo[7]annulene-2-yl)-1H-1,2,4-triazole-3,5-diamine] was tested, and the IC50 was 1 to 10 µM. With `CN1CCN(C2CCN(CC=Cc3ccc(Nc4nc(N)n(-c5cc6c(nn5)-c5ccccc5CCC6)n4)cc3)CC2)CC1` [Compound 196, 1-(6,7-dihydro-5H-benzo[6,7]cyclohepta[1,2-c]pyridazin-3-yl)-N^3-(4-(4-(4-methylpiperazin-1-yl)piperidin-1-ylprop-1-enyl)phenyl)-1H-1,2,4-triazole-3,5-diamine] the IC50 was under 1 µM. With `Nc1nc(Nc2ccc(C=CCN3CCC(N4CCCCC4)CC3)cc2)nn1-c1cc2c(nn1)-c1ccccc1CCC2` [Compound 197, 1-(6,7-dihydro-5H-benzo[6,7]cyclohepta[1,2-c]pyridazin-3-yl)-N^3-(4-(4-(piperidin-1-yl)piperidin-1-ylprop-1-enyl)phenyl)-1H-1,2,4-triazole-3,5-diamine] the IC50 was 1 to 10 µM. `Nc1nc(Nc2ccc(C=CCN3CCCCC3)cc2)nn1-c1cc2c(nn1)-c1ccccc1CCC2` [Compound 198, 1-(6,7-dihydro-5H-benzo[6,7]cyclohepta[1,2-c]pyridazin-3-yl)-N^3-(4-(piperidin-1-ylprop-1-enyl)phenyl)-1H-1,2,4-triazole-3,5-diamine] gave an IC50 of under 1 µM.

Source: patent US7709482B2, “Polycyclic heteroaryl substituted triazoles useful as Axl inhibitors” (Rigel Pharmaceuticals, Inc., priority 2006, dated 2010)
